Where two headings read alike, the source gives them in different places.
Key:
[1] = test system: BT20 (human breast tumor cell line); experiment: Cytotoxicity assay (trypan blue exclusion, 96 h), BT20; format: cell-based; conditions: BT20, 96 h treatment
[2] = test system: DU145 (human prostate tumor cell line); experiment: Cytotoxicity assay (trypan blue exclusion, 96 h), DU145; format: cell-based
Description: (§2) Tissue Culture and Reagents: Paclitaxel was purchased from Sigma. Cell lines were purchased from ATCC. Cell lines were routinely grown in DMEM or RPM1 (CellGro) supplemented with 10% fetal bovine serum (Atlas) and 1 unit/mL penicillin-streptomycin (Gibco).
(§3) A number of tumor cell lines were tested using a dose response end point assay system. The cells were grown in either DMEM or RPMI supplemented with 10% fetal bovine serum and 1 unit/mL Penicillin-Streptomycin solution. The tumor cells were plated into 6 well dishes at a cell density of 1.0×10^5 cells/mL/well and compounds were added 24 h later at various concentrations. Cell counts were determined from duplicate wells after 96 h of treatment. The total number of viable cells was determined by trypan blue exclusion.

[3] = test system: H157 (human lung tumor cell line); experiment: Cytotoxicity assay (trypan blue exclusion, 96 h), H157; format: cell-based
Description: as §2, §3

[4] = test system: DLD1 (human colorectal tumor cell line); experiment: Cytotoxicity assay (trypan blue exclusion, 96 h), DLD1; format: cell-based
Description: as §2, §3

T47D = experiment: Tumor cell killing, T47D; format: cell-based, human; conditions: BREAST (ER+), read-out: Tumor cell killing (IC50) concentration
Description: as §2, §3

MCF-7 = experiment: Tumor cell killing, MCF-7; format: cell-based, human; conditions: MCF-7, BREAST (ER+); read-out: Tumor cell killing (IC50) concentration
Description: as §2, §3

PC-3 = experiment: Tumor cell killing, PC-3; format: cell-based, human; conditions: PC-3, PROSTATE (AR+); read-out: Tumor cell killing (IC50) concentration
Description: as §2, §3

OV-CAR-3 = experiment: Tumor cell killing, OV-CAR-3; format: cell-based, human; conditions: OV-CAR-3, OVARIAN; read-out: Tumor cell killing (IC50) concentration
Description: as §2, §3

MIA-PaCa2 = experiment: Tumor cell killing, MIA-PaCa2; format: cell-based, human; conditions: MIA-PaCa2, PANCREATIC; read-out: Tumor cell killing (IC50) concentration
Description: as §2, §3

U87 = experiment: Tumor cell killing, U87; format: cell-based, human; conditions: U87, GLIOBLASTOMA; read-out: Tumor cell killing (IC50) concentration
Description: as §2, §3

A549 = experiment: Tumor cell killing, A549; format: cell-based, human; conditions: A549, NSCLC; read-out: Tumor cell killing (IC50) concentration
Description: as §2, §3

H187 = experiment: Tumor cell killing, H187; format: cell-based, human; conditions: H187, SCLC; read-out: Tumor cell killing (IC50) concentration
Description: as §2, §3

AGS = experiment: Tumor cell killing, AGS; format: cell-based, human; conditions: GASTRIC, read-out: Tumor cell killing (IC50) concentration
Description: as §2, §3

COLO-205 = experiment: Tumor cell killing, COLO-205; format: cell-based, human; conditions: COLO-205, COLO-RECTAL; read-out: Tumor cell killing (IC50) concentration
Description: as §2, §3

HCT-15 = experiment: Tumor cell killing, HCT-15; format: cell-based, human; conditions: HCT-15, COLO-RECTAL; read-out: Tumor cell killing (IC50) concentration
Description: as §2, §3

CEM = experiment: Tumor cell killing, CEM; format: cell-based, human; conditions: read-out: Tumor cell killing (IC50) concentration
MOLT-4 = experiment: Tumor cell killing, MOLT-4; format: cell-based, human; conditions: MOLT-4, T-lymphoblastic: ALL; read-out: Tumor cell killing (IC50) concentration
Description: as §3

Namalwa = experiment: Tumor cell killing, Namalwa; format: cell-based, human; conditions: Burkitt's Lymphoma (B-cell), read-out: Tumor cell killing (IC50) concentration
Description: as §3

Daudi = experiment: Tumor cell killing, Daudi; format: cell-based, human; conditions: Burkitt's Lymphoma (B-cell), read-out: Tumor cell killing (IC50) concentration
Description: as §3

Raji = experiment: Tumor cell killing, Raji; format: cell-based, human; conditions: Burkitt's Lymphoma (B-cell), read-out: Tumor cell killing (IC50) concentration
Description: as §3

MES-SA = experiment: Tumor cell killing, MES-SA (parental uterine sarcoma); format: cell-based, human; conditions: MES-SA, SARCOMA; read-out: Tumor cell killing (IC50) concentration
Description: (§1) A. 6aa inhibits the growth of parental (MES-SA) and Paclitaxel resistant (MES-SA/DX5) cell lines with equal efficiency. The parental uterine sarcoma cells and the MDR positive (MES-SA/DX5) cells were plated into 6 well dishes and treated with various concentrations of 6aa and Paclitaxel for 96 h. The number of viable cells from duplicate plates was determined by trypan blue exclusion. B. Soft Agar Assays. MIA-PaCa-2 cells (1.0×10^5) were plated in soft agar containing various concentrations of each compound in triplicates. After three weeks of growth, the plates were stained for 48 h using 0.05% nitroblue tetrazolium solution. Representative plates were photographed using an Olympus stereoscope mounted with a Sony digital camera system (DKC5000, Sony Inc). Tissue Culture and Reagents: […] Cell lines were purchased from ATCC. Cell lines were routinely grown in DMEM or RPM1 (CellGro) supplemented with 10% fetal bovine serum (Atlas) and 1 unit/mL penicillin-streptomycin (Gibco). A number of tumor cell lines were tested using a dose response end point assay system. The cells were grown in either DMEM or RPMI supplemented with 10% fetal bovine serum and 1 unit/mL Penicillin-Streptomycin solution. […] Cell counts were determined from duplicate wells after 96 h of treatment. The total number of viable cells was determined by trypan blue exclusion.

MES-SA/DX5 = experiment: Tumor cell killing, MES-SA/DX5 (multidrug resistant subline); format: cell-based, human; conditions: for IC50: *MESSA/DX5, RESISTANT SARCOMA (multi-drug resistant), read-out: Tumor cell killing (IC50) concentration
Description: as §1

CEM/C2 = experiment: Tumor cell killing, CEM/C2 (camptothecin-resistant subline); format: cell-based, human; conditions: *CEM/C2, RESISTANT LEUKEMIC (multi-drug resistant); read-out: Tumor cell killing (IC50) concentration
Description: as §3

[5] = test system: BT20, DU145, H157 and DLD1 cell lines; experiment: In vitro cytotoxicity, four human tumor cell lines (SAR discussion); format: cell-based
[6] = test system: mantle cell lymphoma cell lines; conditions: Park et al Oncogene 2007; cited from earlier work
[7] = DU145, 96 h treatment, read-out: DU145 IC50
[8] = DU145, PROSTATE (AR−), Table 2, read-out: Tumor cell killing (IC50) concentration
[9] = H157, 96 h treatment, read-out: H157 IC50
[10] = H157, NSCLC, Table 2, read-out: Tumor cell killing (IC50) concentration
[11] = DLD1, 96 h treatment, read-out: DLD1 IC50
[12] = DLD-1, COLO-RECTAL, Table 2, read-out: Tumor cell killing (IC50) concentration
[13] = LEUKEMIC (second listing, r39, parental of CEM/C2)

SMILES | IC50 [1] [nM] | IC50 [2, 7] [nM] | IC50 [2, 8] [nM] | IC50 [3, 9] [nM] | IC50 [3, 10] [nM] | IC50 [4, 11] [nM] | IC50 [4, 12] [nM] | IC50 (T47D) [nM] | IC50 (MCF-7) [nM] | IC50 (PC-3) [nM] | IC50 (OV-CAR-3) [nM] | IC50 (MIA-PaCa2) [nM] | IC50 (U87) [nM] | IC50 (A549) [nM] | IC50 (H187) [nM] | IC50 (AGS) [nM] | IC50 (COLO-205) [nM] | IC50 (HCT-15) [nM] | IC50 (CEM; LEUKEMIC (first listing, r26)) [nM] | IC50 (CEM; [13]) [nM] | other results
COc1cc(OC)c(/C=C/S(=O)(=O)Cc2ccc(OC)c(O)c2)c(OC)c1 [6aa, (E)-2,4,6-Trimethoxystyryl-3-Hydroxy-4-Methoxybenzyl Sulfone] | 10 | 3 | 7 | 4 | 7 | 3 | 8 | 6 | 4 | 8 | 6 | 4 | 7 | 10 | 7 | 7 | 9 | 8 | 9 | 10 | IC50 (MOLT-4): 5 nM; IC50 (Namalwa): 6 nM; IC50 (Daudi): 7 nM; IC50 (Raji): 4 nM; IC50 (MES-SA): 6 nM; IC50 (MES-SA/DX5): 5 nM; sensitivity of parental and MDR positive cell lines to cell killing activity (MES-SA/DX5; MES-SA and MES-SA/DX5): equally sensitive; IC50 (CEM/C2): 10 nM; cytotoxic activity, SAR statement ([5]; four human tumor cell lines): best activity in the entire series; fold more active than 6s ([5]; in all four cell lines): 8 to 10 fold; effect on mantle cell lymphoma cell lines [6]: altered the growth and cell cycle status
COc1ccc(CS(=O)(=O)/C=C/c2c(OC)cc(OC)cc2OC)cc1 [6s, (E)-2,4,6-Trimethoxystyryl-4-Methoxybenzyl sulfone] | 20 | 25 | 25 | 30 | 30 | 40 | 40 | 25 | 3 | 30 | 8 | 8 | 40 | 20 | 15 | 20 | 15 | 20 | 30 | 30 | IC50 (MOLT-4): 9 nM; IC50 (Namalwa): 15 nM; IC50 (Daudi): 8 nM; IC50 (Raji): 9 nM; IC50 (MES-SA): 10 nM; IC50 (MES-SA/DX5): 10 nM; IC50 (CEM/C2): 10 nM; fold more active than 6m ([5]; cell-killing assays): 20 fold; effect on mantle cell lymphoma cell lines [6]: altered the growth and cell cycle status
